In PubChem BioAssay (NCI) one finds TGI and GI50 data, which are given here for 43 compounds.

“And” between values parts separate entries of the source, which are not always exact repeats. Equal values may be shown once.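 Briefly, cells in 96-well plates were exposed to five compound concentrations for 48 h, and endpoints were estimated by linear interpolation. GI50 marks 50% less growth. At the TGI there is no net growth.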 A value given as a limit tells only on which side of the number the result lay.

Among the test systems are LXFL 529 NSCLC; HOP-18 NSCLC; RXF-631 renal; P388/ADR leukemia; P388 leukemia; NCI/ADR-RES ovarian; SN12K1 renal; HS 578T breast; MDA-N.
Assay in all cases: NCI tumour cell line growth inhibition, 48 h

Consider `O=C(O)/C(=C/C=C/c1ccccc1)c1csc(-c2nc(/C(=C\C=C\c3ccccc3)C(=O)O)cs2)n1`, for which the TGI in the assay on LXFL 529 NSCLC stood at 64.8 µM.
For the compound `C1CCN(c2nc(=[N+]3CCCCC3)ss2)CC1`, the TGI in the assay with HOP-18 NSCLC, in the assay with LXFL 529 NSCLC and in the assay with RXF-631 renal was above 100 µM each time.
Turning to `COc1cc(OC)c(C2CC=Cc3c(OC)cc(OC)c(OC)c32)cc1OC` (centres undefined), the TGI in the assay with HOP-18 NSCLC and in the assay with LXFL 529 NSCLC was above 100 µM in each case.
Take `Clc1ccc(C2SCc3nc4ccccc4n32)cc1Cl` (centres undefined): in the assay with LXFL 529 NSCLC, the TGI amounted to 24 µM.
`CCC(=O)c1c(NOC2OC(COC(C)=O)C(OC(C)=O)C(OC(C)=O)C2OC(C)=O)nc(OC)n(C)c1=O` (centres undefined): the TGI in the assay with LXFL 529 NSCLC and with RXF-631 renal was above 100 µM in each case.
`CCCCCCCCCCCC1CCCC(C)N1` (centres undefined): the TGI in the assay on HOP-18 NSCLC is 169 µM; in the assay on P388/ADR leukemia it was 54.7 µM; in the assay on P388 leukemia it was 23.9 µM; with NCI/ADR-RES ovarian it was 27.3 µM and 161 µM; in the assay with SN12K1 renal it was 86.4 µM; in the assay with HS 578T breast, 26.2 µM. Besides, the GI50 in the assay with NCI/ADR-RES ovarian was 11.9 µM; in the assay on HS 578T breast, 8.6 µM.
For `NCCCNCCCCN(CCCN)/[N+]([O-])=N\O`, the TGI in the assay with HOP-18 NSCLC, in the assay on LXFL 529 NSCLC and with RXF-631 renal was above 100 µM in each case.
Regarding `C=C1CC/C=C(\C)C(=O)C[C@@H]2[C@@H]1CC2(C)C`, the figures for the TGI with MDA-N and with NCI/ADR-RES ovarian were 3.16 µM and 46.6 µM, respectively.
In the case of `O=C(O)c1cccc(N=Nc2c(S(=O)(=O)O)ccc3c2C(=O)c2ccccc2C3=O)c1O`, the TGI with MDA-N, with NCI/ADR-RES ovarian and in the assay with HS 578T breast was above 100 µM in each case.
As for `COc1cc2c3c(c1OC)-c1c(ccc4c1OCO4)CC3(C#N)N(C(=O)c1ccccc1)CC2` (centres undefined), the TGI in the assay with LXFL 529 NSCLC and in the assay on RXF-631 renal was above 100 µM in each case.
`COC(=O)c1c(N)n[nH]c1N` had a TGI with RXF-631 renal above 100 µM.
In the case of `CC(=O)c1ccc(NC(=O)C(=O)Nn2c(=S)[nH]c3ccccc3c2=O)cc1`, the TGI in the assay on HOP-18 NSCLC and in the assay on LXFL 529 NSCLC was above 100 µM in each case.
On to `O=C(Nc1nc2ncn(CCNCc3ccccc3)c2c(=O)[nH]1)c1ccccc1`, for which the TGI in the assay on HOP-18 NSCLC, with LXFL 529 NSCLC and in the assay with RXF-631 renal was above 100 µM each time.
Consider `Cc1cc(C)nc(NS(=O)(=O)c2ccc(Nc3c4ccc(Cl)cc4nc4c(C(=O)Nc5ccc(S(N)(=O)=O)cc5)cccc34)cc2)n1`, for which the values for the TGI in the assay with LXFL 529 NSCLC and with RXF-631 renal were above 100 µM and 44.2 µM, respectively.
With `COC(=O)CCC(=O)CC(=O)C(=O)Nc1c(Cl)cc([N+](=O)[O-])cc1Cl`, the TGI with HOP-18 NSCLC, with LXFL 529 NSCLC and in the assay with RXF-631 renal was above 100 µM throughout.
As for `O=C(CC1(O)C(=O)Nc2c(Cl)cc(Cl)cc21)c1cccc2ccccc12` (centres undefined), the TGI with HOP-18 NSCLC amounted to 32.2 µM; with LXFL 529 NSCLC, 28.6 µM; with RXF-631 renal, 43.3 µM.
In the case of `O=CC[C@H]1CCc2ccccc2C12CCC(=O)CC2`, the TGI in the assay with LXFL 529 NSCLC and in the assay with RXF-631 renal was above 100 µM throughout.
Consider `CC(C)(C)c1cc2c3c(c1)C(C(F)(F)F)(C(F)(F)F)O[Te]3(C)OC2(C(F)(F)F)C(F)(F)F`, for which the TGI in the assay on HOP-18 NSCLC and in the assay on LXFL 529 NSCLC was above 100 µM in each case.
Turning to `O=C(NP(=O)(N1CC1)N1CC1)c1cc(I)ccc1I`, the TGI in the assay on HOP-18 NSCLC is above 100 µM; in the assay with LXFL 529 NSCLC, above 100 µM; in the assay with MDA-N, above 100 µM; with NCI/ADR-RES ovarian, above 66.1 µM; in the assay on HS 578T breast, above 100 µM.
As for `O=C1C2C3C=CC(C2C(=O)N1COP(=O)(O)O)C1C2C(=O)N(COP(=O)(O)O)C(=O)C2C31` (centres undefined), the TGI in the assay on HOP-18 NSCLC and in the assay on LXFL 529 NSCLC was above 100 µM throughout.
Regarding `Fc1ccccc1C1CC(c2ccc3ccccc3c2)=Nc2ccccc2S1` (centres undefined), the TGI in the assay on HOP-18 NSCLC and with LXFL 529 NSCLC was above 100 µM in each case.
As for `CCOC(=O)C(=Cc1ccc(Oc2ccccc2)cc1)C(=O)OCC`, the TGI with HOP-18 NSCLC was 26.8 µM; in the assay on LXFL 529 NSCLC, 6.39 µM; with MDA-N it was 18.6 µM; in the assay on RXF-631 renal it was 12.1 µM.
`O=[N+]([O-])c1cccc(-c2oc(C=Nc3ccccc3)c([N+](=O)[O-])c2-c2cccc([N+](=O)[O-])c2)c1`: the TGI with LXFL 529 NSCLC and in the assay on RXF-631 renal was above 100 µM each time.
As to `CC1OC(OC2C(O[C@H]3CC[C@@]4(C)C(=CC[C@H]5[C@@H]6C[C@@H]7O[C@]8(CC[C@H](C)CN8)[C@@H](C)[C@@H]7[C@@]6(C)CC[C@@H]54)C3)OC(CO)C(O)C2OC2OC(CO)C(O)C(O)C2O)C(O)C(O)C1O` (some centres undefined), the TGI in the assay with MDA-N amounted to 36.1 µM; in the assay on NCI/ADR-RES ovarian it was 32.5 µM; with HS 578T breast it was 31.2 µM.
For the compound `C[C@]1(CO)CCC[C@@]2(C)C1CC[C@H]1CC3C[C@]12CC[C@]3(C)O` (some centres undefined), the TGI in the assay on RXF-631 renal is above 100 µM.
On to `C=C(Br)N(CC)CC`, for which the TGI in the assay on HOP-18 NSCLC, with LXFL 529 NSCLC and in the assay with RXF-631 renal was above 100 µM in each case.
As for `COC1OC(COCc2ccc(Cl)cc2)C(OCc2ccc(Cl)cc2)C1N=[N+]=[N-]` (centres undefined), the TGI with HOP-18 NSCLC and with LXFL 529 NSCLC was above 100 µM in each case.
Turning to `C1=CC=C2NCCCNC3=CC=CC=CC3=NCCCN=C2C=C1`, the TGI with LXFL 529 NSCLC and in the assay on RXF-631 renal was above 100 µM each time.
For `CN(C)CCNC(=O)c1cccc2c1nc(-c1ccccc1)c1ccccc12`, the TGI with HOP-18 NSCLC worked out at 27.9 µM; in the assay on RXF-631 renal it was 3.06 µM.
For the compound `O=C(Cc1nc2ccccc2s1)Nc1cccc(C(F)(F)F)c1`, the TGI in the assay on HOP-18 NSCLC was found to be 33.5 µM; in the assay with LXFL 529 NSCLC, 27.3 µM; with RXF-631 renal, 26.8 µM.
Consider `CC1C[C@@H]2C(=O)NC(=O)[C@@H]2c2c1c1ccccc1n2C` (some centres undefined), for which the TGI with LXFL 529 NSCLC and in the assay on RXF-631 renal was above 100 µM each time.
Take `CCc1cccc(C(C)C)c1NC(=O)C(=O)C(CC(=O)Nc1ccc(Cl)c(Cl)c1)C(=O)OC` (centres undefined): the TGI with HOP-18 NSCLC and in the assay on RXF-631 renal was above 100 µM throughout.
Consider `COCCCNC(=O)CC(=O)NCCCOC`, for which the TGI in the assay on HOP-18 NSCLC, with LXFL 529 NSCLC and in the assay with RXF-631 renal was above 100 µM in each case.
Turning to `COc1cc(OC)c(/C=C/c2cnc3ccccc3n2)c(OC)c1`, the TGI in the assay with MDA-N, in the assay on NCI/ADR-RES ovarian and in the assay with HS 578T breast was above 10 µM in each case.
`O=C1c2ccccc2C(=O)c2c1ccc(C1C(=O)c3ccccc3C1=O)c2-c1c(C2C(=O)c3ccccc3C2=O)ccc2c1C(=O)c1ccccc1C2=O`: the TGI in the assay with MDA-N, with NCI/ADR-RES ovarian and in the assay with HS 578T breast was above 100 µM in each case.
On to `CS(=O)(=O)N(N(CCCl)S(=O)(=O)c1ccccc1)S(C)(=O)=O`, for which the TGI in the assay with HOP-18 NSCLC, in the assay on LXFL 529 NSCLC and in the assay on RXF-631 renal was above 100 µM in each case.
The compound `S=c1cc(S)sc2c1c(=S)sc1nc3ccccn3c(=S)c12` yielded a TGI with HOP-18 NSCLC above 100 µM.
Consider `O=C(Cn1ccnc1[N+](=O)[O-])c1ccc(F)cc1`, for which the TGI with HOP-18 NSCLC and in the assay with LXFL 529 NSCLC was above 100 µM in each case.
Take `O=C(CCC(=O)C(C(=O)c1ccccc1)c1ccccc1)Nc1cccc(C(F)(F)F)c1` (centres undefined): the TGI with HOP-18 NSCLC and in the assay with LXFL 529 NSCLC was above 100 µM throughout.
`CCCCCCCCCCCCCP(=O)(O)OCC`: the TGI with HOP-18 NSCLC, in the assay on LXFL 529 NSCLC and in the assay with RXF-631 renal was above 100 µM in each case.
`Cc1occc1C(=S)Nc1ccc(Cl)c(C(=O)OC(C)C2CC2)c1` (centres undefined): the TGI worked out at 38.4 µM in the assay on MDA-N, 65.1 µM with NCI/ADR-RES ovarian and 69.1 µM with HS 578T breast.
Take `O=[N+]([O-])c1cccc(C2ON2C2CCCCC2)c1` (centres undefined): the TGI in the assay with HOP-18 NSCLC is above 100 µM; with LXFL 529 NSCLC it was 45.6 µM.
In the case of `CCN(C(=O)c1cc(F)ccc1Oc1cncnc1N1CC2(CCN(CC3CCC(NS(=O)(=O)CC)CC3)CC2)C1)C(C)C` (centres undefined), the GI50 in the assay with NCI/ADR-RES ovarian and with HS 578T breast was above 100 µM in each case. Besides, the TGI in the assay on NCI/ADR-RES ovarian and with HS 578T breast was above 100 µM each time.
